Reference: article PMC3694096, “Development of Novel In Vivo Chemical Probes to Address CNS Protein Kinase Involvement in Synaptic Dysfunction” (PLoS ONE, 2013)
pIC50: −log10 of the molar value.

Experiments:
Type in all cases: biochemical
Abl (Q252H) = biological target: T1, Abl (Q252H) (Homo sapiens, UniProt P00519, Q252H); test: Kinome profiler screen; settings: at 20,000 nM inhibitor; kinase activity remaining
T1 construct: purchased Millipore KinaseProfiler

ARK5 = biological target: T2, ARK5 (Homo sapiens, UniProt O60285); test: Kinome profiler screen; settings: at 20,000 nM inhibitor; kinase activity remaining
T2 construct: purchased Millipore KinaseProfiler
T2 sequence (O60285 whole entry): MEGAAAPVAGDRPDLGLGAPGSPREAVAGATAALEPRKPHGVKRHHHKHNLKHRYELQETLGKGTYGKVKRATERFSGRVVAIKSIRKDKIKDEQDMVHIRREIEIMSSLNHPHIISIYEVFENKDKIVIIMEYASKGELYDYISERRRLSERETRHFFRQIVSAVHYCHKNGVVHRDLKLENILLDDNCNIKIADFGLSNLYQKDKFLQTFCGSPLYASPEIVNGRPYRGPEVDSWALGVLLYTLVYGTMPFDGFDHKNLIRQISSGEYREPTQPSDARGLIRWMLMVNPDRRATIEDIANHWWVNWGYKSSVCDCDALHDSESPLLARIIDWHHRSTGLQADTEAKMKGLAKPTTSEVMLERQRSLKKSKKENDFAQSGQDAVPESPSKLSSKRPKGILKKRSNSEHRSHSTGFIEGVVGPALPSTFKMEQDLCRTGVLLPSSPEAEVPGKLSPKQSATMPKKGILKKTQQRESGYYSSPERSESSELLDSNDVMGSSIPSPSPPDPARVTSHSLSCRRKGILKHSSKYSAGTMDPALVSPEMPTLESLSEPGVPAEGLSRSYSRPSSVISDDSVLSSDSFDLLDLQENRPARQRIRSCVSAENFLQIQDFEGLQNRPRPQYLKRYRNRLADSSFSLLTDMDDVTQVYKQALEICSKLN

BrSK2 = biological target: T3, BrSK2 (Homo sapiens, UniProt Q8IWQ3); test: Kinome profiler screen; settings: at 20,000 nM inhibitor; kinase activity remaining
T3 construct: purchased Millipore KinaseProfiler

CDK2/cyclinE = biological target: T4, CDK2/cyclinE (Homo sapiens, UniProt P24941); test: Kinome profiler screen; settings: at 20,000 nM inhibitor; kinase activity remaining
T4 construct: purchased Millipore KinaseProfiler

CDK5/p25 = biological target: T5, CDK5/p25 (Homo sapiens, UniProt Q00535); test: Kinome profiler screen; settings: at 20,000 nM inhibitor; kinase activity remaining
T5 construct: purchased Millipore KinaseProfiler

CLK3 = biological target: T6, CLK3 (Homo sapiens, UniProt P49761); test: Kinome profiler screen; settings: at 20,000 nM inhibitor; kinase activity remaining
T6 construct: purchased Millipore KinaseProfiler

cKit(D816H) = biological target: T7, cKit(D816H) (Homo sapiens, UniProt P10721, D816H); test: Kinome profiler screen; settings: at 20,000 nM inhibitor; kinase activity remaining
T7 construct: purchased Millipore KinaseProfiler
T7 sequence (P10721 26-976 D816H): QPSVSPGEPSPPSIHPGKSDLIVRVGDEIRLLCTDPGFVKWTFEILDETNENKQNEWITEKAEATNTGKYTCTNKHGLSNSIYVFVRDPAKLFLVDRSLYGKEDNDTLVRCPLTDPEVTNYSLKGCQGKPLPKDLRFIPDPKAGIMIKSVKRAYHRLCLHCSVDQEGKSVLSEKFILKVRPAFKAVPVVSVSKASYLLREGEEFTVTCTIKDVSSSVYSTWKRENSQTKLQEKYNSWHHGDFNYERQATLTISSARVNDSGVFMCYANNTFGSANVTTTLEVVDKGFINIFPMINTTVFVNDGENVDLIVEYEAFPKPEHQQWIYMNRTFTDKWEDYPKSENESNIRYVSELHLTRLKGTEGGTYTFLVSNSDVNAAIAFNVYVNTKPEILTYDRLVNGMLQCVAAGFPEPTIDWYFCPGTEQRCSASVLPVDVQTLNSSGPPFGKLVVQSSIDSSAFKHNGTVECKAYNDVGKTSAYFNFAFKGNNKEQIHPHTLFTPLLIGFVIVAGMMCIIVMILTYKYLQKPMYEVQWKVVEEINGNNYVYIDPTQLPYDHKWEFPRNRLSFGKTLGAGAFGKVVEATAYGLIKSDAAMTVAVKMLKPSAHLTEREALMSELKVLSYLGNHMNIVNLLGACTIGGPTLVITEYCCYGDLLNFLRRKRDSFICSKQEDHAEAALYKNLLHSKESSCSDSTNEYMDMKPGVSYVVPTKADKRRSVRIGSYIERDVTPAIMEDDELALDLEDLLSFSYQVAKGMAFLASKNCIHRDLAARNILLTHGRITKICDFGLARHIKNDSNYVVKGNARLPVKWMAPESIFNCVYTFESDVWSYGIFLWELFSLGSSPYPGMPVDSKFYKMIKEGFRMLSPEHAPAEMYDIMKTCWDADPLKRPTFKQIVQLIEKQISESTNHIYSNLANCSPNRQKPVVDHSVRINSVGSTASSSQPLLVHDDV

EphB2 = biological target: T8, EphB2 (Homo sapiens, UniProt P29323); test: Kinome profiler screen; settings: for activity at 20 µM: at 20,000 nM inhibitor, kinase activity remaining
T8 construct: purchased Millipore
T8 sequence (P29323 19-1055): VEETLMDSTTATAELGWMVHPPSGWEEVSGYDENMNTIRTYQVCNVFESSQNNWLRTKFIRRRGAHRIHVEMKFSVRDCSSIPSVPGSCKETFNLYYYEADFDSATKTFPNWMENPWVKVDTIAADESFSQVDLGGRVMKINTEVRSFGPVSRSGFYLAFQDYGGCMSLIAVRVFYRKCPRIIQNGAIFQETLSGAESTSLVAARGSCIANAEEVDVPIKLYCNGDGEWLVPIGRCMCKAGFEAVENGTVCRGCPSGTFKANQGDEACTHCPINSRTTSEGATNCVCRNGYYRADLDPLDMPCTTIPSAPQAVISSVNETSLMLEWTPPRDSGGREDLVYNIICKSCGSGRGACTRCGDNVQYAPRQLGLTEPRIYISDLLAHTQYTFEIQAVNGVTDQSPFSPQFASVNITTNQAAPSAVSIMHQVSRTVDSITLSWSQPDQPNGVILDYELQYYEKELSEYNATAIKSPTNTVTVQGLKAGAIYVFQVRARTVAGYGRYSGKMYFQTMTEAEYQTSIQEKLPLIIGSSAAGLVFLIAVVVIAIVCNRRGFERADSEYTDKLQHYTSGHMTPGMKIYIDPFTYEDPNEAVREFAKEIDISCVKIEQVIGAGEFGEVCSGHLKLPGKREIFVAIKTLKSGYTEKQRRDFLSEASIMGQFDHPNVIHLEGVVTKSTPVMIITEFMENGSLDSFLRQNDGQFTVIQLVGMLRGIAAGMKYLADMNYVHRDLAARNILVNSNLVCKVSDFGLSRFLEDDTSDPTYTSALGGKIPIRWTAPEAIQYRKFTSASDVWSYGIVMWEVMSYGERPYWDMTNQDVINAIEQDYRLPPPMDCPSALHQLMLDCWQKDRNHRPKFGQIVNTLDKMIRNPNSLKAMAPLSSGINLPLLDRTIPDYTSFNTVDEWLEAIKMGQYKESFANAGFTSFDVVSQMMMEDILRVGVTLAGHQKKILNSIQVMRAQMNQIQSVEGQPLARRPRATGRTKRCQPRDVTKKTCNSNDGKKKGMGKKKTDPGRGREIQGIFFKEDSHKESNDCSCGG

EphB4 = biological target: T9, EphB4 (Homo sapiens, UniProt P54760); test: Kinome profiler screen; settings: at 20,000 nM inhibitor; kinase activity remaining
T9 construct: purchased Millipore KinaseProfiler
T9 sequence (P54760 16-987): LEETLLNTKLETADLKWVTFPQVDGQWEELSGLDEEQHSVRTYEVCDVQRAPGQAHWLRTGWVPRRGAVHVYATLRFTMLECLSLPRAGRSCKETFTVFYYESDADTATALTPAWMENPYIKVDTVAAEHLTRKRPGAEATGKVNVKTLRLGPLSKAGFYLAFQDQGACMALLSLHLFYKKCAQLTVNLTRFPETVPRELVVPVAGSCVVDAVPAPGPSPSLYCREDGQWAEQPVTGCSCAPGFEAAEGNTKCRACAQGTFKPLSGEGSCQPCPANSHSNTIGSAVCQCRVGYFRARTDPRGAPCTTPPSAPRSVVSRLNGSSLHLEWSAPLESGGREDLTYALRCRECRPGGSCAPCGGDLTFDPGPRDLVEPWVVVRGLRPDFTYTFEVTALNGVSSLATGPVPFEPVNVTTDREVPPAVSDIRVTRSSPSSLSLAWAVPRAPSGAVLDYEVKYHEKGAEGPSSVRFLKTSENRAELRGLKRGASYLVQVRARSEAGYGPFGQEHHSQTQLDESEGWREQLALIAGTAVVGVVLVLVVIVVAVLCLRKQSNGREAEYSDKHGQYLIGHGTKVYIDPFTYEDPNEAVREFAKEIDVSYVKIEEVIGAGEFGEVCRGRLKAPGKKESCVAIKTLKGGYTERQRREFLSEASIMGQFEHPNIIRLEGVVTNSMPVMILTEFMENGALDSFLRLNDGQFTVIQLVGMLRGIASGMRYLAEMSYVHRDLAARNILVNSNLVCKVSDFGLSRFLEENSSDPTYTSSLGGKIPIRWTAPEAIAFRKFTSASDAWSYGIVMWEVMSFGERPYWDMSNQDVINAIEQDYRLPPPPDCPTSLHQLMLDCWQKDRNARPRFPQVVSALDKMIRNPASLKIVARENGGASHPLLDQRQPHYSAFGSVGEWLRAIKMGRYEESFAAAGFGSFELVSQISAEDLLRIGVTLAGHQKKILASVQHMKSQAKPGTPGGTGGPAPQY

FGFR1 = biological target: T10, FGFR1 (Homo sapiens, UniProt P11362); test: Kinome profiler screen; settings: at 20,000 nM inhibitor; kinase activity remaining
T10 construct: purchased Millipore KinaseProfiler

Fgr = biological target: T11, Fgr (Homo sapiens, UniProt P09769); test: Kinome profiler screen; settings: at 20,000 nM inhibitor; kinase activity remaining
T11 construct: purchased Millipore KinaseProfiler

Flt3(D835Y) = biological target: T12, Flt3(D835Y) (Homo sapiens, UniProt P36888, D835Y); test: Kinome profiler screen; settings: at 20,000 nM inhibitor; kinase activity remaining
T12 construct: purchased Millipore KinaseProfiler

Flt3 = biological target: T13, Flt3 (Homo sapiens, UniProt P36888); test: Kinome profiler screen; settings: at 20,000 nM inhibitor; kinase activity remaining
T13 construct: purchased Millipore KinaseProfiler

Hck activated = biological target: T14, Hck activated (Homo sapiens, UniProt P08631); test: Kinome profiler screen; settings: at 20,000 nM inhibitor; kinase activity remaining
T14 construct: purchased Millipore KinaseProfiler
T14 sequence (P08631 whole entry): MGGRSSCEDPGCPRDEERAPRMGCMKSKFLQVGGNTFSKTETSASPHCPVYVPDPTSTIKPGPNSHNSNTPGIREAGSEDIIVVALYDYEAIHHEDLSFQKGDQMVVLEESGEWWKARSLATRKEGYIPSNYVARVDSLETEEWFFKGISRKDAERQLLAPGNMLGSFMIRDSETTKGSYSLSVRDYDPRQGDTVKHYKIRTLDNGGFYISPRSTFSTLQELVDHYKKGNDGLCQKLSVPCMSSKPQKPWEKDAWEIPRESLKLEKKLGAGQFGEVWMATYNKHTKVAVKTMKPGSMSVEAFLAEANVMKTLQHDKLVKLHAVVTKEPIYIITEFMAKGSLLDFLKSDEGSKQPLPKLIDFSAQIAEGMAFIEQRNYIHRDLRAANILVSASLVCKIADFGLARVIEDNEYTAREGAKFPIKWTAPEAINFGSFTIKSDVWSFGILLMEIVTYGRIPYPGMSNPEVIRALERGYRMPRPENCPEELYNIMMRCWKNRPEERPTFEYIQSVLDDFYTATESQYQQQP

IGF-1R, activated = biological target: T15, IGF-1R, activated (Homo sapiens, UniProt P08069); test: Kinome profiler screen; settings: at 20,000 nM inhibitor; kinase activity remaining
T15 construct: purchased Millipore KinaseProfiler

IRAK1 = biological target: T16, IRAK1 (Homo sapiens, UniProt P51617); test: Kinome profiler screen; settings: at 20,000 nM inhibitor; kinase activity remaining
T16 construct: purchased Millipore KinaseProfiler
T16 sequence (P51617 whole entry): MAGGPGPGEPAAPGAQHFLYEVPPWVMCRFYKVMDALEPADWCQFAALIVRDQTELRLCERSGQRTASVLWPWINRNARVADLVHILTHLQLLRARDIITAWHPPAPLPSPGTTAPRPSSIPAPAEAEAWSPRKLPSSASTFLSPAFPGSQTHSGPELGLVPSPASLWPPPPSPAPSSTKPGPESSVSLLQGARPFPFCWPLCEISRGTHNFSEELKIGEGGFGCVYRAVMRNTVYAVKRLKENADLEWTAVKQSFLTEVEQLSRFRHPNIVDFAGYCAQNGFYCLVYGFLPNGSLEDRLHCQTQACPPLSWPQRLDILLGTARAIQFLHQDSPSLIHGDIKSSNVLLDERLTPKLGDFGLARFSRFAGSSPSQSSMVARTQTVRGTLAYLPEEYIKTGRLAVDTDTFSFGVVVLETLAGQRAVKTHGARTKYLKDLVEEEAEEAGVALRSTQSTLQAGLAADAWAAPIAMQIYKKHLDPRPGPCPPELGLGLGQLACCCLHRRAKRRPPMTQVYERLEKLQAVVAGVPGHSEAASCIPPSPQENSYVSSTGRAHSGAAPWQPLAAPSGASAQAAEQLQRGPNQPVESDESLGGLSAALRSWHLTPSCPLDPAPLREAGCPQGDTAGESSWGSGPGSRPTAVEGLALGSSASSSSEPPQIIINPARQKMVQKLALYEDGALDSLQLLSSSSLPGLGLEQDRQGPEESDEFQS

MELK = biological target: T17, MELK (Homo sapiens, UniProt Q14680); test: Kinome profiler screen; settings: at 20,000 nM inhibitor; kinase activity remaining
T17 construct: purchased Millipore KinaseProfiler

Met(Y1248H) = biological target: T18, Met(Y1248H) (Homo sapiens, UniProt P08581, Y1230H); test: Kinome profiler screen; settings: at 20,000 nM inhibitor; kinase activity remaining
T18 construct: purchased Millipore KinaseProfiler

MKK7β = biological target: T19, MKK7β (Homo sapiens, UniProt O14733); test: Kinome profiler screen; settings: at 20,000 nM inhibitor; kinase activity remaining
T19 construct: purchased Millipore KinaseProfiler

MuSK = biological target: T20, MuSK (Homo sapiens, UniProt O15146); test: Kinome profiler screen; settings: at 20,000 nM inhibitor; kinase activity remaining
T20 construct: purchased Millipore KinaseProfiler

p70S6K = biological target: T21, p70S6K (Homo sapiens, UniProt P23443); test: Kinome profiler screen; settings: at 20,000 nM inhibitor; kinase activity remaining
T21 construct: purchased Millipore KinaseProfiler
T21 sequence (P23443 whole entry): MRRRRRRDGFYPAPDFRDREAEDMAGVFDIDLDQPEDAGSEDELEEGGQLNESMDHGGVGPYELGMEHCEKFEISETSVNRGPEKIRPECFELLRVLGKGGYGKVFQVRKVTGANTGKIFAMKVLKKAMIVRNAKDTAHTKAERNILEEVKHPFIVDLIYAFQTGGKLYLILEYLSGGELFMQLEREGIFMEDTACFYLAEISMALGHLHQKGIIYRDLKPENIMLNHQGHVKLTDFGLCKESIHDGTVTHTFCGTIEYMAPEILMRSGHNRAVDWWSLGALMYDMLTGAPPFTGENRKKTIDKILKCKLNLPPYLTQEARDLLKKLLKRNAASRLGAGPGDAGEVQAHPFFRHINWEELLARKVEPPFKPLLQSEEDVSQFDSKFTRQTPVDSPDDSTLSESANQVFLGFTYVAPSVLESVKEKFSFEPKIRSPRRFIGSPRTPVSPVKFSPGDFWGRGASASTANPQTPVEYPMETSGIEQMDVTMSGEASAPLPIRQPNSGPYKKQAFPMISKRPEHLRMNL

PAK4 = biological target: T22, PAK4 (Homo sapiens, UniProt O96013); test: Kinome profiler screen; settings: at 20,000 nM inhibitor; kinase activity remaining
T22 construct: purchased Millipore KinaseProfiler
T22 sequence (O96013 whole entry): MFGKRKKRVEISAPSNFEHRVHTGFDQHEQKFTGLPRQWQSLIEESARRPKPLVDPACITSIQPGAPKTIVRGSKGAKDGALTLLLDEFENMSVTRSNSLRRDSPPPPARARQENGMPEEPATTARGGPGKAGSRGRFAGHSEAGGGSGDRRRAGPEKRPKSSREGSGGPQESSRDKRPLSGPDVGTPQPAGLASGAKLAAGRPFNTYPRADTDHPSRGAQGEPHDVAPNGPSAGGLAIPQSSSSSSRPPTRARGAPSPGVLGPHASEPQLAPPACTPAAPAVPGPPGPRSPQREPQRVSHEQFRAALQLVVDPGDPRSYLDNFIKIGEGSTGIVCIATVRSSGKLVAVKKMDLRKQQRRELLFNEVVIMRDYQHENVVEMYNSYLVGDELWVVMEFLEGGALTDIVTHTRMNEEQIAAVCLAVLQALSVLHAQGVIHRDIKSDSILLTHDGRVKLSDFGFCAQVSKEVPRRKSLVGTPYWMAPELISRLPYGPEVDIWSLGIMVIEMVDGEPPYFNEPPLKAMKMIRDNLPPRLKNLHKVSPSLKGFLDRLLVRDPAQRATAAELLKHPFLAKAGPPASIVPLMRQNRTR

PKA = biological target: T23, PKA (Homo sapiens, UniProt P17612); test: Kinome profiler screen; settings: at 20,000 nM inhibitor; kinase activity remaining
T23 construct: purchased Millipore KinaseProfiler

PKCδ = biological target: T24, PKCδ (Homo sapiens, UniProt Q05655); test: Kinome profiler screen; settings: at 20,000 nM inhibitor; kinase activity remaining
T24 construct: purchased Millipore KinaseProfiler

PKCε = biological target: T25, PKCε (Homo sapiens, UniProt Q02156); test: Kinome profiler screen; settings: at 20,000 nM inhibitor; kinase activity remaining
T25 construct: purchased Millipore KinaseProfiler

Ret(V804M) = biological target: T26, Ret(V804M) (Homo sapiens, UniProt P07949, V804M); test: Kinome profiler screen; settings: at 20,000 nM inhibitor; kinase activity remaining
T26 construct: purchased Millipore KinaseProfiler

Src(T341M) = biological target: T27, Src(T341M) (Homo sapiens, UniProt P12931, T341M); test: Kinome profiler screen; settings: at 20,000 nM inhibitor; kinase activity remaining
T27 construct: purchased Millipore KinaseProfiler

TAK1 = biological target: T28, TAK1 (Homo sapiens, UniProt O43318); test: Kinome profiler screen; settings: at 20,000 nM inhibitor; kinase activity remaining
T28 construct: purchased Millipore KinaseProfiler

ZIPK = biological target: T29, ZIPK (Homo sapiens, UniProt O43293); test: Kinome profiler screen; settings: at 20,000 nM inhibitor; kinase activity remaining
T29 construct: purchased Millipore KinaseProfiler

>290 mammalian kinases = test: Hierarchal large-scale kinome screen, overall outcome; settings: overall outcome in words

| Structure (SMILES) | activity at 20 µM (Abl (Q252H)) | activity at 20 µM (ARK5) | activity at 20 µM (BrSK2) | activity at 20 µM (CDK2/cyclinE) | activity at 20 µM (CDK5/p25) | activity at 20 µM (CLK3) | activity at 20 µM (cKit(D816H)) | activity at 20 µM (EphB2) | activity at 20 µM (EphB4) | activity at 20 µM (FGFR1) | activity at 20 µM (Fgr) | activity at 20 µM (Flt3(D835Y)) | activity at 20 µM (Flt3) | activity at 20 µM (Hck activated) | activity at 20 µM (IGF-1R, activated) | activity at 20 µM (IRAK1) | activity at 20 µM (MELK) | activity at 20 µM (Met(Y1248H)) | activity at 20 µM (MKK7β) | activity at 20 µM (MuSK) | further results |
| --- | --- | --- | --- | --- | --- | --- | --- | --- | --- | --- | --- | --- | --- | --- | --- | --- | --- | --- | --- | --- | --- |
| CN(C)c1cc(-c2ccncc2)c(-c2ccc3ccccc3c2)nn1 [MW108, N, N-dimethyl-6-(naphthalen-2-yl)-5-(pyridin-4-yl)pyridazin-3-amine] | 105% | 98% | 88% | 108% | 106% | 102% | 109% | 36% | 54% | 93% | 92% | 90% | 108% | 97% | 104% | 97% | 90% | 88% | 122% | 104% | pIC50 (EphB2): 4.79; activity at 20 µM (p70S6K): 92%; activity at 20 µM (PAK4): 104%; activity at 20 µM (PKA): 74%; activity at 20 µM (PKCδ): 101%; activity at 20 µM (PKCε): 90%; activity at 20 µM (Ret(V804M)): 85%; activity at 20 µM (Src(T341M)): 92%; activity at 20 µM (TAK1): 102%; activity at 20 µM (ZIPK): 93%; Large Scale Kinome Screen (>290 mammalian kinases): only p38αMAPK as a potential target; Large Scale Kinome Screen (>290 mammalian kinases; listed as MW01-11-108SRM): negative except for p38αMAPK |
| CN(C)c1cc(-c2ccncc2)c(-c2cccc3ccccc23)nn1 [MW181, N,N-dimethyl-6-(naphthalen-1-yl)-5-(pyridin-4-yl)pyridazin-3-amine] | 100% | 103% | 105% | 118% | 99% | 101% | 102% | 92% | 100% | 103% | 90% | 100% | 93% | 106% | 87% | 102% | 91% | 103% | 116% | 102% | activity at 20 µM (p70S6K): 94%; activity at 20 µM (PAK4): 109%; activity at 20 µM (PKA): 142%; activity at 20 µM (PKCδ): 92%; activity at 20 µM (PKCε): 98%; activity at 20 µM (Ret(V804M)): 102%; activity at 20 µM (Src(T341M)): 102%; activity at 20 µM (TAK1): 104%; activity at 20 µM (ZIPK): 106%; Large Scale Kinome Screen (>290 mammalian kinases): p38αMAPK, p38βMAPK, and the atypical p38 kinase NLK as primary targets; Large Scale Kinome Screen (>290 mammalian kinases; listed as MW01-10-181SRM): negative except for the following MAPKs |
